# According to patent US9420790B2, “Molecules that induce disease resistance and improve growth in plants” (The Regents of the University of California, priority 2013, dated 2016):
# Entries after “also recorded” stand apart in the source; their conditions may differ.
# Key:
# Col-0 seedlings [1] = experiment: Trypan blue staining for phytotoxicity (cell death) after saturation treatment; assay type: in vivo, Arabidopsis thaliana
# Procedure: B. Trypan blue staining of CaBP22^−333 : :GUS seedlings incubated for 24 h in medium containing compounds at the indicated concentrations.
# To quantify the bioactivity of HTC, we performed various assays with one week-old CaBP22^−333::GUS seedlings submerged in liquid growth medium containing HTC or mock-solution (saturation treatment). […] To examine if HTC induces phytotoxicity, we stained Col-0 seedlings after saturation treatment with trypan blue.
# To determine which substituents or moieties of the HTC molecule are critical for its defense-inducing activity, seven commercially available HTC analogs were analyzed (FIG. 3A). We compared the ability of these compounds to induce GUS expression in saturation treated CaBP22^−333::GUS Arabidopsis seedlings to that of DCA and HTC. […] We also used trypan blue staining to examine HTC-analog-induced phytotoxicity.
# [2] = test system: Peronospora isolate Noco2; experiment: Noco2 spore inhibition assay in soil-grown seedlings; assay type: in vivo, Hyaloperonospora arabidopsidis; conditions: for HTC-triggered immunity to Noco2: 100 μM; for suppression of Noco2 spore formation / resistance to Noco2: 7 dpi
# Procedure: FIG. 2. Kinetic analysis of chemically-induced disease resistance. Experiments were conducted with three-week-old soil-grown Col-0 seedlings sprayed with 100 μM HTC, DCA, INA, or mock solution (1% DMSO) at the indicated times prior to being sprayed with 2×10^4 mL^−1Noco2 spores (2 ml per pot). Peronospora (Hyeloperonospora arabidopsidis) spores were counted 7 dpi (days post-infection). Mean and SE values were calculated from a minimum of three biological replicates and the average of those is shown above.
# FIG. 3. Structure-activity analysis of HTC analogs. A. Chemical structures of DCA, HTC and tested HTC analogs. Chiral centers of the HTC skeleton are indicated by “1*” and “2*” in HTC. B. Noco2 spore inhibition assay. Three-week-old soil-grown Col-0 seedlings were spray-infected 24 h after treating with varying concentrations of each synthetic elicitor and then assayed at 7 dpi for spore growth. 100% inhibition=0 spores. […] The average of those three replicates is shown. Significant differences of compound-treated compared to mock-treated seedlings determined by Student's t-tests (p<0.05) are marked by colored four pointed stars.
# FIG. 4. Analysis of HTC activity in defense mutant plants. A & B. RT-PCR analysis of CaBP22 transcript levels in Col-0 (wild-type) and mutant backgrounds 24 h after spraying 2-week-old seedlings with mock-solution (1% DMSO), 100 μM DCA, or HTC. RT-PCRs with ACTIN are shown as loading controls. […] C. Analysis of HTC activity in Col-0 or nahG background. Experiments were conducted with three-week-old soil-grown Col-0 or nahG seedlings sprayed with 100 μM HTC, 100 μM DCA, or mock-solution (1% DMSO) 24 h prior to infection with 2×10^4 virulent Noco2 spores ml^−1 (2 ml per pot). Spores were counted at 7 dpi. Mean and SE values were calculated from a minimum of three biological replicates and their averages of are shown.
# We next tested whether HTC could induce pathogen resistance in soil-grown plants. […] To determine if HTC differs from other synthetic elicitors in the kinetics of defense induction, Col-0 seedlings were sprayed with 100 μM of INA, DCA, HTC, or mock, 1 h, 3 h, 1 d, 3 d, or 6 d prior to pathogen challenge.
# We performed a dose-response analysis of inhibition of Noco2 spore development in three-week old Col-0 plants using the HTC analogs (FIG. 3B).
# We also compared the biological activity of s-HTC to that of p-HTC by spraying a concentration gradient of both preparations on soil-grown Col-0 seedlings 24 h prior to challenge with Noco2.
# Col-0 seedlings [3] = experiment: Fresh weight of aerial portions of soil-drenched Col-0 seedlings; assay type: in vivo, Arabidopsis thaliana; conditions: 1-100 μM soil drench, day 14
# Procedure: FIG. 6. Relative weight of aerial portions of synthetic elicitor treated Col-0 seedlings compared to control (DMSO) treated seedlings. Col-0 seeds (15-20 seeds per pot) were sown on soil drenched with 20 mL of the indicated concentrations of HTC, INA, DCA, or the respective mock solutions. Fresh weight (FW) of the above-ground plant tissues was measured at day 14. Results are expressed as percentages of the average FW of the respective synthetic elicitor treated plants compared to that of mock-treated controls. The standard error and Student's t-test (p<0.05) were calculated from at least three biological replicates and averages are shown. Significant differences between synthetic elicitor-treated and control-treated plants are marked by a star above the corresponding data point. Y-axis represents percent of FW in the presence of synthetic elicitor compared to controls.
# To determine whether the synthetic […] could increase the aerial weight of Arabidopsis, soil-sown-seedlings were drenched with synthetic elicitor in water at day 0 (FIG. 6). After 14 days, aerial portions of plants were cut off and their fresh weight measured. […] HTC thus has a hormesis-like effect in Arabidopsis roots, but generally increases the aerial fresh weight of Arabidopsis at the concentrations tested.
smiles,measurement,setting,value
"O=C(O)C1CSC(c2cc(Br)ccc2O)N1 (centres unmarked) [HTC, 2-(5-bromo-2-hydroxy-phenyl)-thiazolidine-4-carboxylic acid]",cell death (trypan blue staining),Col-0 seedlings [1]; lower concentrations that resulted in reporter activation (1-100 μM),No cell death
same,seedlings with cell death (trypan blue staining),Col-0 seedlings [1]; treated for 24 h at 300 μM,100%
same,HTC-triggered immunity to Noco2,[2]; 6 dpt,not detectable
same,HTC-triggered immunity to Noco2,[2]; 3 days post treatment (dpt),reduced
same,efficacy of s-HTC versus p-HTC in reducing Noco2 spore counts,"[2]; 20, 50, 100, and 200 μM sprayed on Col-0 24 h prior to challenge",No significant difference
same,suppression of Noco2 spore formation / resistance to Noco2,"[2]; Col-0, 100 μM sprayed 24 h prior to infection",able to do so; also recorded: significantly suppresses
same,concentration giving significantly reduced numbers of Noco2 spores (as low as),"[2]; Col-0 sprayed prior to infection, spores 7 dpi",10 µM
same,level of protection / defense-inducing activity against Noco2,"[2]; dose-response, three-week old Col-0 (FIG. 3B)",highest protection; also recorded: most potent of the tested analogs
same,concentration giving significant protection against Noco2,"[2]; dose-response, three-week old Col-0, infected 24 h after treatment, 7 dpi (FIG. 3B)",10 µM
same,suppression of Noco2 spore formation / resistance to Noco2,"[2]; nahG, 100 μM sprayed 24 h prior to infection",did not observe significant reduction and not
same,fresh weight of shoots relative to mock-treated plants,Col-0 seedlings [3],~120%
